Columns and labels:
[1] = tested on: T1, HSP27; assay: HSP27 cross-linking in NCI-H460 cells (Western blot); format: cell-based, human; conditions: 0-20 μM, 24 h
T1 construct: endogenous in cells; host or cells: NCI-H460
Procedure: For polyacrylamide gel electrophoresis (PAGE) and Western blot (WB) analysis, cells were lysed with radioimmunoprecipitation assay (RIPA) buffer (50 mM Tris-HCl [pH 7.5], 150 mM NaCl, 1% NP-40, 0.1% sodium dodecyl sulfate (SDS), and 1% sodium deoxycholate) supplemented with 1 mM Na3VO4, 1 mM dithiothreitol (DTT), 1 mM phenyl-methyl-sulfonyl fluoride (PMSF), and protease inhibitor cocktail (Calbiochem). The samples were boiled for 5 min, and equal amounts of protein were analyzed by SDS-PAGE. […]
( B) NCI-H460 cells were tr eated with J2 or NA49 (0, 1, 5, 10 and 20 μM) for 24 h, and cell lysates were
detected by Western blot analysis. […]

[2] = target: CYP450 3A4 (Homo sapiens, UniProt P08684); assay: CYP450 enzyme inhibition, 3A4
[3] = PAMPA permeability assay; format: in vitro ADME; conditions: for Papp: read-out: Cell Permeability Log Papp (converted)
Procedure: Permeability was evaluated with a parallel artificial membrane permeability (PAMPA) assay using an artificially generated lipid-infused membrane.

[4] = tested on: NCI-H460 cells; assay: MTT viability assay, NCI-H460; format: cell-based, human; conditions: Homo sapiens, 24 h
Procedure: (§1) The human NSCLC cell lines of NCI-H460, A549, HCC827, PC9, NCI-H1650, and NCI-H1975 were obtained from the American Type Culture Collection (Rockville, MD, USA). Cells were cultured in RPMI 1640 medium containing 10% FBS, 2 mmol/L L-glutamine, and 100 units/mL of penicillin and streptomycin and maintained at 37 °C in a humidified incubator containing 5% CO2.
(§2) Cell viability against gefitinib-, cisplatin-, and NA49-induced toxicity was determined using an MTT (Amersham Pharmacia Biotech) assay in 96-well plates. […] Next, cells were incubated with 100 µL of 5 mg/mL 3-(4,5-dimethylthiazol-2-yl)-2,5-diphenyltetrazolium bromide (Sigma Aldrich, M5655) for 2 h. After the MTT mixture was removed, 100 µL of DMSO was added to each well, and absorbance at 540 nm was measured using an ELISA plate reader (TECAN, Twinfinite PRO).

[5] = tested on: NCI-H460 xenograft; assay: NCI-H460 tumor xenograft in mice; format: in vivo, BALB/c nude mice; conditions: NA49 20 mg/kg IP every other day + cisplatin 2 mg/kg IP twice a week
Procedure: (§3) NCI-H460 single-cell suspension (1 × 10^6 cells) was injected subcutaneously into the hind legs of 6-week-old BALB/c nude mice (Orientbio, Korea). […] NCI-H1650 single-cell suspension (1 × 10^7 cells) was injected subcutaneously into the hind leg of 6-week-old NOD-SCID mice (Koatech, Korea). When tumors reached a minimal volume of 150 mm^3, xenograft mice were treated 7 times with J2 or NA49 by local regional application with or without gefitinib (5 mg/kg) by IP injection. For this, J2 or NA49 (20 mg/kg) was injected by IP every two days, and gefitinib was injected every three days. Tumor volumes were determined according to the formula (L × l^2)/2, by measuring tumor length (L) and width (l) with a caliper. Tumors were measured every other day and allowed to grow for 15 or 34 days. All procedures for animal experiments were in accordance with the guidelines by the Ewha Woman’s University Institutional Animal Care and Use Committee (IACUC, 18-006), Seoul, Korea.

[6] = tested on: PC9 cells; assay: Cell death by PI staining / flow cytometry, PC9; format: cell-based, human; conditions: NA 10 µM + gefitinib 0.01 µM, CompuSyn
Procedure: (§4) Cells were plated in 6-well culture plates at a density of 1 × 10^5 cells/well. Compounds were applied to the cells immediately after seeding. When cells were harvested, cells were washed once with 1× phosphate-buffered saline (PBS), dissociated using Trypsin-EDTA, and centrifuged at 13,000 rpm for 3 min at 4 °C. Next, 1 mL of 1× PBS was added to wash the pellet again. Finally, 1 mL of 1× PBS and 1 μg/mL of propidium iodide (PI) were added to each polystyrene round-bottom tube. Flow cytometric analysis was performed using a FACS flow cytometer (BD Bioscience). To measure cell death, 10^4 cells were counted, and PI-stained cells were analyzed. FACS analysis in accordance with the manufacturer’s instruction. […]
(§5) Table S1. CI values of NSCLC cell lines.
(§6) Cell line Combination drug NA 10 µM NA 20 µM
(§7) CI values were calculated from the data of percent inhibition of cell death by PI staining. Each CI
(§8) value was analyzed by CompuSyn software. […]

[7] = tested on: NCI-H1650 cells; assay: MTT viability assay, NCI-H1650; format: cell-based; conditions: Homo sapiens, 24 h
Procedure: as §1, §2

[8] = tested on: NCI-H1975 cells; assay: Cell death by PI staining / flow cytometry, NCI-H1975; format: cell-based, human; conditions: NA 10 µM + gefitinib 10 µM, CompuSyn
Procedure: as §4, §5, §6, §7, §8

[9] = tested on: NCI-H460 cells; assay: Cell death by PI staining / flow cytometry, NCI-H460; format: cell-based, human; conditions: H460, PI staining, CompuSyn
Procedure: as §4, §5, §6, §7, §8

[10] = tested on: HCC827 cells; assay: Cell death by PI staining / flow cytometry, HCC827; format: cell-based, human; conditions: NA 10 µM + gefitinib 0.01 µM, CompuSyn
Procedure: as §4, §5, §6, §7, §8

[11] = tested on: NCI-H1650 cells; assay: Cell death by PI staining / flow cytometry, NCI-H1650; format: cell-based, human; conditions: CompuSyn
Procedure: as §4, §5, §6, §7, §8

[12] = tested on: HCC827 cells; assay: MTT viability assay, HCC827; format: cell-based; conditions: Homo sapiens, 24 h
Procedure: as §1, §2

[13] = tested on: PC9 cells; assay: MTT viability assay, PC9; format: cell-based; conditions: Homo sapiens, PC-9, 24 h
Procedure: as §1, §2

[14] = tested on: NCI-H1650 xenograft; assay: NCI-H1650 tumor xenograft in mice; format: in vivo, NOD-SCID mice; conditions: NA49 20 mg/kg IP every other day + Gef 5 mg/kg IP
Procedure: as §3

[15] = tested on: A549 cells; assay: MTT viability assay, A549; format: cell-based; conditions: Homo sapiens, 24 h
[16] = tested on: NCI-H1975 cells; assay: MTT viability assay, NCI-H1975; format: cell-based; conditions: Homo sapiens, 24 h
Procedure: as §1, §2

[17] = tested on: A549 cells; assay: Cell death by PI staining / flow cytometry, A549; format: cell-based, human; conditions: PI staining, CompuSyn
Procedure: as §4, §5, §6, §7, §8

Sequence of CYP450 3A4 (P08684 whole entry): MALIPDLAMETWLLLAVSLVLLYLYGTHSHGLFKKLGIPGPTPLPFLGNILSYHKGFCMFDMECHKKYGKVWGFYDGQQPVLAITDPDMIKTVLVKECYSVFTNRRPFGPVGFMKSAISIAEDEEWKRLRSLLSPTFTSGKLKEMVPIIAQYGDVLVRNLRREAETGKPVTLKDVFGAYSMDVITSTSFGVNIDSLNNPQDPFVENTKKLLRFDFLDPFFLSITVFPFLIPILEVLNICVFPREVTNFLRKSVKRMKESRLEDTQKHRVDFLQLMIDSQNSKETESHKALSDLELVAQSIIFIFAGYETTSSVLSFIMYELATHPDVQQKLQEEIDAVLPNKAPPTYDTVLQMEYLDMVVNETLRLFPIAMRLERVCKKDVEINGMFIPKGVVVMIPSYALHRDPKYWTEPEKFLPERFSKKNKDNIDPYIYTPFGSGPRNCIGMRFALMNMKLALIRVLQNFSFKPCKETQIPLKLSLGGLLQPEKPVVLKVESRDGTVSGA

Compound: Cc1cc(=O)c2c(O)cc(OCC3CS3)cc2o1 (stereo not shown) [J2]
- HSP27 cross-linking activity (altered dimerization) [1]: altered dimerization was detected
- IC50 [2]: > 50 µM
- Cell permeability, rating [3]: low
- Papp [3]: 12.6 ×10⁻⁶ cm/s

Compound: COc1ccc(-c2coc3cc(OCC4CS4)ccc3c2=O)c(OC)c1 (stereo not shown) [NA49]
- IC50 [4]: 38.1 ± 0.69 µM
- HSP27 cross-linking activity (altered dimerization) [1]: slightly less than J2
- Tumor growth, combination with NA49 compared to cisplatin alone [5]: greater reduction in tumor growth
- CI value (combination index) [6]: 1.84
- IC50 [7]: 62.9 ± 1.58 µM
- CI value (combination index) [8]: 0.392
- CI value (combination index) ([9]; NA 10 µM + cisplatin 3 µM): 0.942
- CI value (combination index) ([9]; NA 20 µM + cisplatin 3 µM): 0.969
- IC50 [2]: > 50 µM
- CI value (combination index) [10]: 0.651
- CI value (combination index) ([11]; NA 10 µM + gefitinib 10 µM): 0.828
- CI value (combination index) ([11]; NA 10 µM + gefitinib 20 µM): 0.487
- IC50 [12]: 64.4 ± 2.31 µM
- Cell permeability, rating [3]: moderate
- Papp [3]: 32.4 ×10⁻⁶ cm/s
- IC50 [13]: 73 ± 2.66 µM
- Tumor growth, combination with NA49 compared to Gef alone [14]: greater reduction in tumor growth
- IC50 [15]: 62.5 ± 0.9 µM
- IC50 [16]: 89.4 ± 2.57 µM
- CI value (combination index) ([17]; NA 10 µM + cisplatin 5 µM): 0.698
- CI value (combination index) ([17]; NA 20 µM + cisplatin 5 µM): 0.823
